# Assay results reported in article PMC9181982, “Biphenyl Ether Analogs Containing Pomalidomide as Small-Molecule Inhibitors of the Programmed Cell Death-1/Programmed Cell Death-Ligand 1 Interaction” (Molecules, 2022).
# Key:
# PD-1/PD-L1 complex = target: T1, PD-1/PD-L1 complex (Homo sapiens, UniProt Q9NZQ7); assay: HTRF (homogeneous time-resolved fluorescence) PD-1/PD-L1 binding assay (Cis-Bio); settings: 5 nM hPD-L1, 50 nM hPD-1
# T1 construct: purchased Cis-Bio
# Procedure: To validate the activity toward PD-L1 of our compounds, we carried out an HTRF (homogeneous time-resolved fluorescence) experiment at two concentrations of the ligand (5 µM and 0.5 µM) (Table 1).
# HTRF was carried out using a certified Cis-Bio assay according to the manufacturer’s guidelines. The experiments were carried out at 5 nM of h-L1 and 50 nM of hPD-1 in the final formulation at the 20 µL final volume in the well. To determine the half maximal inhibitory concentrations (IC50) of the tested compounds, the measurements were carried out on two individual dilution series unless stated otherwise. After mixing all the components according to the Cis-Bio protocol, the plate was left for 2 h incubation at room temperature followed by the TR-FRET measurement on a Tecan Spark 20M. […] The collected data was background-subtracted from the negative control, normalized on the positive control, averaged, and fitted with the normalized Hill’s equation to determine the IC50 value using Mathematica 12 (Princeton, NJ, USA).
# PD-L1 protein = target: T2, PD-L1 protein (Homo sapiens, UniProt Q9NZQ7); assay: 1H NMR binding analysis, PD-L1 protein titrated with ligand; settings: for Binding to PD-L1 by 1H NMR titration: PBS pH 7.4, 300 K, protein–ligand ratios up to 1:10
# T2 construct: PD-L1 gene (amino acids 18–239); made in house; host or cells: E. coli BL21
# T2 sequence (Q9NZQ7 18-239): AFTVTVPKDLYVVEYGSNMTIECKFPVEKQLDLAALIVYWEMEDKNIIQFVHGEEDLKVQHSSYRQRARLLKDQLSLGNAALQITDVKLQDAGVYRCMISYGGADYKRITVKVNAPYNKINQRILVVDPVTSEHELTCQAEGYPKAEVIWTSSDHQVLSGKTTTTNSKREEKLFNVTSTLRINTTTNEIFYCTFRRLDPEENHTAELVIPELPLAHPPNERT
# Procedure: Apart from the HTRF assay, we performed the NMR [33, 34] binding analysis by recording the ^1H spectrum of the PD-L1 protein titrated with compound 4 (Figure 1).
# The E. coli strain BL21 was transformed with a pET-21b plasmid carrying the PD-L1 gene (amino acids 18–239). The bacteria were cultured in LB at 37 °C until OD600nm of 0, 6 when the recombinant protein production was induced with 1 mM IPTG. The protein production continued overnight. The inclusion bodies were collected by centrifugation, washed twice with 50 mM Tris HCl, pH 8.0, containing 200 mM NaCl, 10 mM EDTA, 10 mM 2-mercaptoethanol, and 0.5% Triton X-100, followed by a single wash with the same buffer but with no Triton X-100. The washed inclusion bodies were resuspended overnight in 50 mM Tris HCl, pH 8.0, 6 M GuHCl, 200 mM NaCl, and 10 mM 2-mercaptoethanol and clarified with centrifugation. Refolding of PD-L1 was performed by dropwise dilution into 0.1 M Tris HCl, pH 8.0, containing 1 M L-arginine hydrochloride, 0.25 mM oxidized glutathione, and 0.25 mM reduced glutathione. The refolded protein was dialyzed three times against 10 mM Tris HCl, pH 8.0, containing 20 mM NaCl and purified by size exclusion chromatography using Superdex 75 and a dialysis buffer. The quality of the refolded protein was evaluated by SDS-PAGE and NMR.
# NMR spectra were recorded in PBS, pH 7.4, containing 10% (v/v) of D2O added to the samples to provide the lock signal. Water suppression was carried out using the WATERGATE sequence. All the spectra were recorded at 300 K using a Bruker Avance 600 MHz spectrometer with the Cryo-Platform. The NMR spectrum was recorded at three different ligand/protein ratios from 0 to 10. The samples were prepared by adding small amounts of a 50 mM ligand stock solution in DMSO to the protein solution (0.20 mL) of the PD-L1 fragment at a concentration of 0.14 mM. The acquisition parameters for each spectrum were as follows: size of FID32768, number of scans: 32. The spectra were visualized using TopSpin 4.0.2. (Bruker, Billerica, MA, USA)
# [1] = tested on: PD-1/PD-L1 blockade, Jurkat effector cells / CHO/TCRAct/PD-L1 cells; assay: Immune checkpoint blockade (ICB) assay (Promega): Jurkat ECs co-cultured with CHO/TCRAct/PD-L1 cells, NFAT luciferase readout; type: cell-based, human
# Procedure: In order to explore the bioactivity of the synthesized compounds, a well-recognized immune checkpoint blockade (ICB) assay was performed. In the assay, artificial T cells, the Jurkat effector cells (Jurkat ECs), i.e., the Jurkat T cells overexpressing PD-1 and luciferase-coding gene under the control of the TCR-inducible NFAT response element, are contacted with artificial antigen-presenting CHO/TCRAct/PD-L1 cells, as illustrated in [31]. The latter is the CHO cells equipped with the TCR activator molecule, which delivers activation of Jurkat ECs, and also the PD-L1 protein, which provides a negative signal towards the activation of Jurkat ECs. Upon the blockade of the PD-1/PD-L1 interaction, activation of Jurkat ECs is increased, as we have shown before for several classes of therapeutic antibodies and small molecules.
# The human PD-L1-expressing CHO-K1 cells overexpressing TCR activator (CHO/TCRAct/PD-L1) cells and Jurkat ECs T cells overexpressing PD-1 and carrying a luciferase reporter gene under the control of the Nuclear Factor of Activated T cells Response Element (NFAT-RE) were obtained from Promega and cultured in an RPMI-1640 medium (Biowest, Nuaillé, France) supplemented with 10% fetal bovine serum (FBS, Biowest, Nuaillé, France) and […] L-glutamine (Biowest, Nuaillé, France). G418 (250 µg/mL, InvivoGen, San Diego, CA, USA) and Hygromycin B Gold (50 µg/mL, InvivoGen, San Diego, CA, USA) were also added to the culture medium as selection antibiotics. CAKI 2, LNCap, PC-3, and MDA-MB-231 cells were purchased from the European Collection of Authenticated Cell Cultures (ECACC) and cultured according to the provided protocol.
# For the analysis of biological activity of the analyzed compounds, an immune checkpoint blockade (ICB) assay was performed. For this, the culture of Jurkat effector cells (Jurkat-ECs) and […] was carried out. The assay was performed according to the protocol described in our previous works. All the experiments were performed three times as independent experiments.
# Figure 2 Bioactivity of the indicated compounds. (A,B) The activity was monitored with a cell-based immune checkpoint blockade (ICB) assay. Jurkat ECs were contacted with pre-seeded CHO/TCRAct/PD-L1 cells in the presence of the indicated concentrations of the compounds (A) or durvalumab (B) as a positive control. The cells were co-cultured for 6 h and the luminescence signal was measured following the addition of the Bio-Glo substrate. The graphs show fold induction calculated versus either DMSO-treated (for small molecules) or untreated (for durvalumab) control (ctrl) cells. The results are mean ± SD from three independent experiments. […] (C) Analysis of the expression of PD-L1 in four human cancer cell lines compared to PD-L1-overexpressing CHO/TCRAct/PD-L1 cells. (D) Analysis of the expression of PD-L1 in MDA-MB-231 cells treated with either 4 or 5 compounds for 6 or 24 h.
# T1 sequence (Q9NZQ7 19-238 limits assumed, one chain of several): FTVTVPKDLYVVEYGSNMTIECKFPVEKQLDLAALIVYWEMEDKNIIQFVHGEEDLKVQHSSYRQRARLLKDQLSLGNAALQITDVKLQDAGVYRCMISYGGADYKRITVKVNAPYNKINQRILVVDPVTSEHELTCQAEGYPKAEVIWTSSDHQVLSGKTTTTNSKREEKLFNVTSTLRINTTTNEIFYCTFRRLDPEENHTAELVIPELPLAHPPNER
"inhibition at 0.5 µM (PD-1/PD-L1 complex; 0.5 µM ligand, read-out: HTRF: Percentage of the Dissociated PD-1/PD-L1 Complex, 0.5 µM Ligand Conc.)","inhibition at 5 µM (PD-1/PD-L1 complex; 5 µM ligand, read-out: HTRF: Percentage of the Dissociated PD-1/PD-L1 Complex, 5 µM Ligand Conc.)","Protein precipitation during NMR titration (PD-L1 protein; 1H NMR titration, compound 6 at protein–ligand ratio 1:10)","HTRF: Percentage of the Dissociated PD-1/PD-L1 Complex, 0.5 µM Ligand Conc. (PD-1/PD-L1 complex; 0.5 µM ligand)","HTRF: Percentage of the Dissociated PD-1/PD-L1 Complex, 5 µM Ligand Conc. (PD-1/PD-L1 complex; 5 µM ligand)",SMILES,Binding to PD-L1 by 1H NMR titration (PD-L1 protein),Promega Assay (active / not active) ([1]; cell-based PD-1/PD-L1 blockade bioassay),"Activation of Jurkat ECs in the ICB assay ([1]; 6 h co-culture, fold induction vs control)"
13.8%,25.9%,massive protein precipitation,,,"Cc1c(COc2cc(OCc3cccc(C#N)c3)c(C(NCCCNc3cccc4c3C(=O)N(C3CCC(=O)NC3=O)C4=O)c3nnnn3C(C)(C)C)cc2Cl)cccc1-c1ccc2c(c1)OCCO2 (stereo not drawn) [compound 6, 3-((2-((1-(tert-butyl)-1H-tetrazol-5-yl)((3-((2-(2,6-dioxopiperidin-3-yl)-1,3-dioxoisoindolin-4-yl)amino)propyl)amino)methyl)-4-chloro-5-((3-(2,3-dihydrobenzo[b][1,4]dioxin-6-yl)-2-methylbenzyl)oxy)phenoxy)methyl)benzonitrile]",does not present changes in the PD-L1 NMR protein spectra,Not active,
,,,11.4%,20.1%,Nc1cccc2c1C(=O)N(C1CCC(=O)NC1=O)C2=O (stereo not drawn) [pomalidomide],lack of interaction,,did not increase the activation of Jurkat ECs
